Source: patent US8361999B2, “Methods of treating cholesterol gallstone disease with ezetimibe” (Pontificia Universidad Catolica de Chile, priority 2005, dated 2013)

Experiments:
Assay type in all cases: in vivo, mouse
[1] = test system: cholesterol and bile salt absorption; assay: Intestinal absorption of cholesterol and bile salts by fecal excretion of neutral and acidic sterols; settings: for Fecal excretion of bile acids / Fecal excretion of neutral sterols: pooled feces; for Fecal excretion of bile acids: days 12-14; for Fecal excretion of neutral sterols: last three days of 14
Method: (§1) Surgery and sample harvest. The groups were maintained for 14 days (protocol #1) or 30 days (protocol #2) in the different experimental conditions. During the last three days of the protocols, 24 h depositions were collected from the different groups (pool) to determine the fecal excretion of neutral sterols (cholesterol) and acidic sterols (bile salts). At the end of the time established in the protocols, the mice were anesthetized (between 08:00-10:00 AM) with an intraperitoneal pentobarbital injection in doses of 4.5 mg per 100 gr body weight (Amigo et al., 2000) and subjected to surgery. Standardized surgery consists in an extended […] and visualization of abdominal organs, including liver, biliary tree and gallbladder. First, we performed a resection of the gallbladder (cholecystectomy), with the cystic duct previously ligated (Amigo et al., 2002; Amigo et al., 2000; Amigo et al., 2003b). The gallbladder is removed and visually inspected to determine the presence of gallstones. Then, the gallbladder bile is extracted to analyze the presence of cholesterol crystals in the fresh samples under the microscope with polarized light (20×). Aliquots are stored at −20° C. for subsequent chemical analysis. Afterwards, the common biliary duct is cannulated (biliary fistula) with a P-10 polyethylene cannula to collect bile during 15 minutes, determine bile flow by gravimetry (1 g bile=1 ml; bile flow is expressed as μl/min/g of mouse liver) and for posterior chemical analysis of biliary lipids and glutathione, as specified later. […] Then, the liver is removed, weighted, frozen in liquid nitrogen and stored at −80 for subsequent analyses. The plasma is separated by centrifugation at 1,500 rpm and stored at −80° C. for later analysis. The animal protocols were approved by our institution Ethics Committee and the animals were treated according to international care rules for experimental animals.
Intestinal absorption of cholesterol and bile salts. The capacity of Ezetimibe to inhibit cholesterol and bile salt absorption was indirectly determined by quantification of neutral sterols (cholesterol) and acidic sterols (bile acids) present in the feces collected on day 12, 13 and 14 of the experiment (three days). In order to determine cholesterol (neutral sterols) fecal excretion, the feces were dried at 50° C. for three days and then weighted to obtain an average of fecal excretion per day (in grams). The feces were homogenized in a mortar, and 5 ml 2N NaOH:methanol, 1:1 are added per 100 mg (dry weight) aliquots of the homogenate. The sample is vortex and incubated at 60° C. for 1 h for saponification, then it is cooled and 5 ml petroleum ether is added followed by vigorous agitation to obtain the separation of the hydrophobic and hydrophilic phases. The samples are then centrifuged at 1,000 rpm for 10 minutes and the hydrophobic phase (upper layer) is recovered. Second and third extractions are performed by adding 5 ml petroleum ether to the hydrophilic phase. The hydrophobic phases are dried under gaseous nitrogen and the lipids are resuspended in 1 ml chloroform. 50 μl aliquots, in duplicate, are dried at room temperature, and total cholesterol is quantified according to the enzymatic method described above. The values obtained are expressed as μmoles cholesterol/day/100 g of mouse (Miettinen et al., 1965). In order to determine fecal excretion of bile acids the mice feces were collected during three days (days 12-14), dried at 50° C. for one week and weighted. The feces are then homogenized in a mortar; (^14C) cholic acid, 200,000 cpm is added to 1 g of the homogenate to determine the degree of recovery. The samples are then mixed with NaBr, NaOH and HCl, dissolved in ethanol and incubated at 120° C. for 8 h in a reflux system. The hydrolyzed fecal samples are resuspended in NaOH and dried under gaseous N2. The pellet obtained is resuspended in ethanol and run through Sep-Pak columns to eliminate all bile salts contaminants. […]

MRP2 = assay: Hepatic expression of MRP2 (Northern blot); settings: 14 days
Method: Expression of Specific Bile Salts (Ntcp, Bsep), Phospholipid (MDR2) and Organic Anions or Glutathione (MRP2); And Determination of Glutathione Synthesis (Gluthamylcystein-Synthetase (GGCS)).
Total RNA extraction. 80 mg hepatic tissue frozen at −70° C. was homogenized in 800 μl solution D, following the method described by Chomczynski and Sacchi, 1987. The RNA concentration was calculated by measuring the absorbance at 260 nm and its purity by the ratio OD260/OD280. The samples are stored at −20° C. RNA electrophoresis. 10 μg of total RNA are dried under gaseous N2 or vacuum for 10 minutes. 10 μl loading buffer were added, and the samples heated to 65° C., loaded into a denaturing 1% agarose/formaldehyde gel and run at 100 volts for 4 hours. The RNA integrity was determined by the clear visualization of the 28 S and 18 S ribosomal RNAs (FIG. 8).
Northern Blot and hybridization with radioactive probes. The gel with the RNA samples is washed with DEPC H2O for 10 minutes to eliminate formaldehyde and then incubated for 20 minutes with 50 mM NaOH for partial RNA hydrolysis. After a 10 minute wash with DEPC H2O to eliminate NaOH, the samples are transferred from the gel to Nylon membranes (Hybond-N, Amersham Pharmacia) over night by a capillary system. […]
Probe labeling by “de novo synthesis”. […] The percentage of incorporated radioactivity into the probe was always over 60%. […]

C57BL/6J mice = assay: Biliary flow and hepatic secretion of biliary lipids
Method: as §1
Intestinal absorption of cholesterol and bile salts. The capacity of Ezetimibe to inhibit cholesterol and bile salt absorption was indirectly determined by quantification of neutral sterols (cholesterol) and acidic sterols (bile acids) present in the feces collected on day 12, 13 and 14 of the experiment (three days). In order to determine cholesterol (neutral sterols) fecal excretion, the feces were dried at 50° C. for three days and then weighted to obtain an average of fecal excretion per day (in grams). […] 50 μl aliquots, in duplicate, are dried at room temperature, and total cholesterol is quantified according to the enzymatic method described above. The values obtained are expressed as μmoles cholesterol/day/100 g of mouse (Miettinen et al., 1965). […]

O=C1[C@H](CC[C@H](O)c2ccc(F)cc2)[C@@H](c2ccc(O)cc2)N1c1ccc(F)cc1 [Ezetimibe, (−)-1-(4-fluorophenyl)-(3R)-[3-(4-fluorophenyl)-(.S)-hydroxypropyl]-(4S)-(4-hydroxyphenyl)-2-azetidinone]
Fecal excretion of bile acids ([1]; Chow + Ezetimibe): 55.42 μmol/day/100 g mouse | Fecal excretion of neutral sterols ([1]; Chow + Ezetimibe): 19.98 μmol/day/100 g mouse | Fecal excretion of bile acids ([1]; Lithogenic + Ezetimibe): 909.20 μmol/day/100 g mouse | Fecal excretion of neutral sterols ([1]; Lithogenic + Ezetimibe): 165.79 μmol/day/100 g mouse | effect on fecal excretion of bile salts ([1]; both on control and lithogenic diets): does not significantly affect | increment of fecal excretion of neutral sterols vs control diet without Ezetimibe ([1]; control diet): 37% | fecal excretion of neutral sterols (cholesterol) higher than in mice not treated with Ezetimibe ([1]; lithogenic diet): 55% | hepatic expression of MRP2, lithogenic diet plus Ezetimibe vs lithogenic diet (MRP2): no significant differences | biliary flow larger than in the group on lithogenic diet without ezetimibe (significant) (C57BL/6J mice; lithogenic diet): 50-60% | secretion of bile salts and phospholipids vs group without ezetimibe (C57BL/6J mice; lithogenic diet (FIG. 3)): increase | secretion of biliary cholesterol vs group without ezetimibe (C57BL/6J mice; lithogenic diet (FIG. 3)): did not associate to a greater secretion | increase in biliary flow (slight, non-significant) (C57BL/6J mice; low cholesterol control diet): 30-40%
